Data set [1] is described as follows: Dermal pharmacokinetics in mini-pig skin. The format is in vivo. The conditions noted are these: model cream and ointment formulations, without detectable plasma exposure. The source says:
The objective of this assay was to determine the epidermal, dermal and plasma pharmacokinetics of a test compound following a 24 hr exposure to intact mouse or mini-pig skin.
Twenty-four hours prior to dosing the hair was shaved from the back of 25 g male Balb/c mice exposing an area at of least 6 cm^2 (about 10% of body surface) and, in a separate experiment, of 10 kg Gottingen mini-pigs exposing an area of at least 450 cm^2 (about 10% of body surface). At time zero, following isoflurane anesthesia, the test compound was applied to the back of mice or mini-pigs at a dose of 25 μL/cm^2. The skin was covered with an adhesive cover to prevent loss of compound to the cage or bedding.
Following 24 h exposure, the backs were gently washed with soap and water to remove non-absorbed drug and patted dry. Immediately following this washing, blood was drawn by cardiac puncture from the mice and via venipuncture from the mini-pigs. The outer skin (stratum corneum) was then removed by adhesive tape stripping. Upon exposure of the epidermis a 0.5 cm punch biopsy was taken. The epidermis and dermis were quickly separated, weighed and snap frozen. […]
Epidermis and dermis samples were homogenized in 1:10 (w/v) water using a Covaris ultrasonic homogenizer. Samples were extracted in 3 volumes of acetonitrile and quantified against a standard curve via LC-MS analysis.

A further data set concerns the target T1, CSF1R (Homo sapiens, UniProt P07333).
T1 construct: made in house; host or cells: T7 phage in E. coli (BL21-derived) or HEK-293
In words: Kinome screen, CSF1R. The format is binding. The conditions noted are these: screened at 1 μM. As to the method: (§1) Kinase-tagged T7 phage strains were grown in parallel in 24-well blocks in an E. coli host derived from the BL21 strain. E. coli were grown to log-phase and infected with T7 phage from a frozen stock (multiplicity of infection=0.4) and incubated with shaking at 32° C. until lysis (90-150 minutes). The lysates were centrifuged (6,000×g) and filtered (0.2 μm) to remove cell debris. The remaining kinases were produced in HEK-293 cells and subsequently tagged with DNA for qPCR detection.
(§2) Streptavidin-coated magnetic beads were treated with biotinylated small molecule ligands for 30 minutes at room temperature to generate affinity resins for kinase assays. The liganded beads were blocked with excess biotin and washed with blocking buffer (SeaBlock (Pierce), 1% BSA, 0.05% Tween 20, 1 mM DTT) to remove unbound ligand and to reduce non-specific phage binding. […] Test compounds were prepared as 40× stocks in 100% DMSO and directly diluted into the assay. All reactions were performed in polypropylene 384-well plates in a final volume of 0.04 ml. […] The beads were then re-suspended in elution buffer (1×PBS, 0.05% Tween 20, 0.5 μM non-biotinylated affinity ligand) and incubated at room temperature with shaking for 30 minutes. The kinase concentration in the eluates was measured by qPCR.

For the next data set, the target named is T2, JAK3 (Homo sapiens, UniProt P52333).
T2 construct: GST; purchased Life Technologies
The experiment in a line: LanthaScreen JAK biochemical assay, JAK3. The note with it: read-out: JAK 3 pKi (converted). As to the method:
A panel of four LanthaScreen JAK biochemical assays (JAK1, 2, 3 and Tyk2) were carried in a common kinase reaction buffer (50 mM HEPES, pH 7.5, 0.01% Brij-35, 10 mM MgCl2, and 1 mM EGTA). Recombinant GST-tagged JAK enzymes and a GFP-tagged STAT1 peptide substrate were obtained from Life Technologies.
Serially diluted compound was pre-incubated with each of the four JAK enzymes and the substrate in white 384-well microplates (Corning) at ambient temperature for 1 h. ATP was subsequently added to initiate the kinase reactions in 10 μL total volume, with 1% DMSO. […] The plates were allowed to incubate at ambient temperature for 1 h before being read on the EnVision reader (Perkin Elmer). Emission ratio signals (520 nm/495 nm) were recorded and utilized to calculate the percent inhibition values based on DMSO and background controls.
For dose-response analysis, percent inhibition data were plotted vs. compound concentrations, and IC50 values were determined from a 4-parameter robust fit model with the Prism software (GraphPad Software). Results were expressed as pIC50 (negative logarithm of IC50) and subsequently converted to pKi (negative logarithm of dissociation constant, Ki) using the Cheng-Prusoff equation.
In general terms: In TR-FRET formats the signal depends on donor and acceptor labels being close together.

Data set [2] can be described thus: Lung and plasma pharmacokinetics in mice. It counts as in vivo, mouse. The note with it: BALB/c mice, Form 1 suspension 0.1 mg/mL, 50 μL by oral aspiration. As to the method:
Plasma and lung concentrations of compound 1 and ratios thereof were determined in the following manner. BALB/c mice from Charles River Laboratories were used in the assay. Compound 1 Form 1 of example 2 was formulated in 0.01% Tween 80 in normal saline (0.9% sodium chloride in water) at a concentration of 0.1 mg/mL as a suspension. 50 μL of the suspension formulation was introduced into the trachea of a mouse by oral aspiration. At various time points (0.083, 1, 4, 24, 48, 72, and 96 hr). Post dosing, blood samples were removed via cardiac puncture and intact lungs were excised from the mice. Blood samples were centrifuged (Eppendorf centrifuge, 5804R) for 4 minutes at approximately 12,000 rpm at 4° C. to collect plasma. Lungs were padded dry, weighed, and homogenized at a dilution of 1:3 in sterile water. Plasma and lung concentrations of compound 1 were determined by LC-MS analysis against analytical standards constructed into a standard curve in the test matrix. […] The lung half-life was calculated at approximately 40 hours. The lung to plasma ratio was determined as the ratio of the lung AUC in μg hr/g to the plasma AUC in μg hr/mL (where AUC is conventionally defined as the area under the curve of test compound concentration vs. time).

For another data set, the target named is T3, VEGFR2 (Homo sapiens, UniProt P35968).
T3 construct: made in house; host or cells: T7 phage in E. coli (BL21-derived) or HEK-293
In words: Kinome screen, VEGFR2. It counts as binding. The note with it: screened at 1 μM. As to the method: as §1, §2

The text below walks through data of patent publication US10493077B2, “Fused imidazo-piperidine JAK inhibitor compound” (THERAVANCE BIOPHARMA R&D IP, LLC, priority 2017, dated 2019).

T3 sequence (P35968 20-1356): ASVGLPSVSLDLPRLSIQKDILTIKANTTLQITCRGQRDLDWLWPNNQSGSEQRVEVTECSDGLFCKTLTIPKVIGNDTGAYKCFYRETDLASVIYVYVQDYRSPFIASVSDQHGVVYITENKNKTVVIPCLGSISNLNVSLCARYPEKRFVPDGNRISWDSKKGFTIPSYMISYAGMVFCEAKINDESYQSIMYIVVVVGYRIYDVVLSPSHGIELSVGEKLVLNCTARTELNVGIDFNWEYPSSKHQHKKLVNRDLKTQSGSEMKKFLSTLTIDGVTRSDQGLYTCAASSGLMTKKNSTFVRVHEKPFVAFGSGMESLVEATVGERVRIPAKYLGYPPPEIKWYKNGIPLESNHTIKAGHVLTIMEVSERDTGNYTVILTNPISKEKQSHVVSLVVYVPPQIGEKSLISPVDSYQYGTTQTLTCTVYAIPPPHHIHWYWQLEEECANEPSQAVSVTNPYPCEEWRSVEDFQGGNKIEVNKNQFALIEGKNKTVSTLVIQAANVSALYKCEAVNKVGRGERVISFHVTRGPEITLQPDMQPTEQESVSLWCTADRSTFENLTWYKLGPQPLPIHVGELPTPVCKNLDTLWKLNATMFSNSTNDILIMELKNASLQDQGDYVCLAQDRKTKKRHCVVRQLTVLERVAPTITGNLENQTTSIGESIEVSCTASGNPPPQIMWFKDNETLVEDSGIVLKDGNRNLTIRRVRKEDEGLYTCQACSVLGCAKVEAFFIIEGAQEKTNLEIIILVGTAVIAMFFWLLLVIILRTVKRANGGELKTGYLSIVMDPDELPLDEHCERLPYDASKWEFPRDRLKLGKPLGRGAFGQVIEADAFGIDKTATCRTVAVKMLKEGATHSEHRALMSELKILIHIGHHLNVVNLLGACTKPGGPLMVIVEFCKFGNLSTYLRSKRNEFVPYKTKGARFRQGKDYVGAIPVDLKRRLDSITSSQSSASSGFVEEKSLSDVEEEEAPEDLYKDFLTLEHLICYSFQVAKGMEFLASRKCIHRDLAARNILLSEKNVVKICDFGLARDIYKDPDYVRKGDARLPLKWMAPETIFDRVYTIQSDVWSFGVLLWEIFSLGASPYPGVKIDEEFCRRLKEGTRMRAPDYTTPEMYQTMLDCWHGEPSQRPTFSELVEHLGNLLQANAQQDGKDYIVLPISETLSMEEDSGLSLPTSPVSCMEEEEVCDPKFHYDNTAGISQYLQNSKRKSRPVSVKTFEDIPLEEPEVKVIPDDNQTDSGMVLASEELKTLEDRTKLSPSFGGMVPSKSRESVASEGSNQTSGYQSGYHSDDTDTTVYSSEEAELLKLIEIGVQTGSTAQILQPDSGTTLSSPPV
T1 sequence (P07333 20-972): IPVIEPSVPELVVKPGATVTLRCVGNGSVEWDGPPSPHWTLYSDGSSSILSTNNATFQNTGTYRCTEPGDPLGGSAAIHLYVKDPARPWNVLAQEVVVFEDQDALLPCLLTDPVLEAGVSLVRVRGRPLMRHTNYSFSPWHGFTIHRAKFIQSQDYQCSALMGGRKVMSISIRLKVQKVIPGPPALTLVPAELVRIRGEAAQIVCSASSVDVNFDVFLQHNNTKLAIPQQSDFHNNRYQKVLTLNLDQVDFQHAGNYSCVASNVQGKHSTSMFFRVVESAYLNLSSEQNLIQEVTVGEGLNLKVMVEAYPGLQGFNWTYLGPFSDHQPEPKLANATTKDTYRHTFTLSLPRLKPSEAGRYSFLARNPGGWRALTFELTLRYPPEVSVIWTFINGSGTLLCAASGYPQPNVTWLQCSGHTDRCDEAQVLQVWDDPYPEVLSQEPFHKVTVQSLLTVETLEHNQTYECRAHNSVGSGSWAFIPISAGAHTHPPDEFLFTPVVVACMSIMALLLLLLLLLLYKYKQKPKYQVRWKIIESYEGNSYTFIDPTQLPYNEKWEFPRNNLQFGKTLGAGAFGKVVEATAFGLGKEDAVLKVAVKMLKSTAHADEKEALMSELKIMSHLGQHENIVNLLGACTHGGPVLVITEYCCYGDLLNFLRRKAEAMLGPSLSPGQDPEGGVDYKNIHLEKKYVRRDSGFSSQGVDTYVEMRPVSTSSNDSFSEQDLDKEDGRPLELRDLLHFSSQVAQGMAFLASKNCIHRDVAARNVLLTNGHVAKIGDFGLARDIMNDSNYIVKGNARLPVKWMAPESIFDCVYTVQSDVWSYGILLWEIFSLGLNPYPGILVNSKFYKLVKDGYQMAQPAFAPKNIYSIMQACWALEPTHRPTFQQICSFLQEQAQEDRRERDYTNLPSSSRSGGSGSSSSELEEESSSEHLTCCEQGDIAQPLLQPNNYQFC
T2 sequence (P52333 whole entry): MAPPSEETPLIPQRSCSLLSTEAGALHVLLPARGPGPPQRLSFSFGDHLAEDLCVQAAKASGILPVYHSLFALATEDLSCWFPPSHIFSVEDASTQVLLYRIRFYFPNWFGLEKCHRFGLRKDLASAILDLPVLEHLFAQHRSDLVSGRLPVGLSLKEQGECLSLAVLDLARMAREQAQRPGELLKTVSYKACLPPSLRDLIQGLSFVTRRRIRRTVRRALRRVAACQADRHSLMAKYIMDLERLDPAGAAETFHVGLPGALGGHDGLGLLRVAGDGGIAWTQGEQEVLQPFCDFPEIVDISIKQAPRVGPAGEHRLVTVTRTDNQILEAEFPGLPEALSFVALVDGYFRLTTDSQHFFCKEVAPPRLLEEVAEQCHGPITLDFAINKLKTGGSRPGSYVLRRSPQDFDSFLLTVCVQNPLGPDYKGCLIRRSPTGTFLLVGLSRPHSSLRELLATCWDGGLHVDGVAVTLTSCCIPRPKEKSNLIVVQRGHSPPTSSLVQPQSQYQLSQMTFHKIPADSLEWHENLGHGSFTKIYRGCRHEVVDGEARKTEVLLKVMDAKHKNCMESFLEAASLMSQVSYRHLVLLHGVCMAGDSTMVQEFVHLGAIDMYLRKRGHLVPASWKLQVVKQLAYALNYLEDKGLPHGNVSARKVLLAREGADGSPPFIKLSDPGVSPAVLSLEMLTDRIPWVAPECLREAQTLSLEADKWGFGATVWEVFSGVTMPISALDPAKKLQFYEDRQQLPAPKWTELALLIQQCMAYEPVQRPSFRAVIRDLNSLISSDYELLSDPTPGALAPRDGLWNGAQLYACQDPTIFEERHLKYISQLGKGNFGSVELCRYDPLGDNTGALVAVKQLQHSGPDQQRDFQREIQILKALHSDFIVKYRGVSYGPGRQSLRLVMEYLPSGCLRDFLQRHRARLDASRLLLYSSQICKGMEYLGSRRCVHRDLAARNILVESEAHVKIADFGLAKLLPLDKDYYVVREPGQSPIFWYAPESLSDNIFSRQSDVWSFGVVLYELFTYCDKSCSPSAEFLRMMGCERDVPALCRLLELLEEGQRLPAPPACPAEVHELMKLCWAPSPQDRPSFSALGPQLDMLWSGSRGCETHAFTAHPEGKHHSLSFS

For `CCc1cc(O)c(F)cc1-c1cc(F)c2c(-c3nc4c([nH]3)CCN(C(=O)CN3CCOCC3)C4)n[nH]c2c1` [Compound 1, 1-(2-(6-(2-ethyl-5-fluoro-4-hydroxyphenyl)-4-fluoro-1H-indazol-3-yl)-1,4,6,7-tetrahydro-5H-imidazo[4,5-c]pyridin-5-yl)-2-morpholinoethan-1-one], the “duration of sustained dermal levels” value in data set [1] was “at least 7 days”. Further, the inhibition at 1 µM at CSF1R was found to be 98%; at VEGFR2, 42%. Moreover, the Ki at JAK3 is 0.2 nM. In data set [2], the “lung AUC (0-96 hr)” value turned out to be 360 µg·h/g. In data set [2] (mouse, lung and plasma, 5 μg/mouse, read-out: lung to plasma AUC ratio), the Kp was found to be 1780. In data set [2] (mouse, lung, 5 μg/mouse), this compound gave a half-life of about 40 h.

Usually inhibition stands for the percentage by which the read-out fell short of the control. By half-life is commonly meant the time needed for the level to fall by half in the phase considered.
